# Experimental data: publication PMC9862026, “In Vivo Toxicity, Redox-Modulating Capacity and Intestinal Permeability of Novel Aroylhydrazone Derivatives as Anti-Tuberculosis Agents” (Pharmaceutics, 2022)
# Entries after “also recorded” stand apart in the source; their conditions may differ. Like-named read-outs stand apart in the source and are kept apart here. Marks after values point to notes of the source that are not given here.
# Experiments:
# DPPH assay = settings: 0.1 mM DPPH in methanol, 30 min
# Method: DPPH (2,2′-diphenyl-1-picrylhydrazyl radical) assay analysis of pure compounds was conducted by the method described by Brand-Williams et al.. First, 500 μL of the test solutions were added to 500 μL of a freshly prepared solution of 0.1 mM DPPH in methanol and incubated in the dark for 30 min. Then the absorbance at 517 nm (A517) was measured against a mixture of DPPH solution and methanol (1:1) as a control.
# (§1) All data are presented as IC50, which gave 50% inhibition of the activities and compared against the activity of Trolox—a common antioxidant, at the same concentrations.
# male Jcl:ICR mice [1] = experiment: Sub-acute toxicity, 14 days oral: body weight; assay type: in vivo; settings: 125 mg/kg oral, end of 14-day period
# Method: (§2) The sub-acute toxicity effects were assessed after repeated (14 days) oral administration to male mice. […] The experiments were performed with male Jcl: ICR mice at the same age of 6 weeks and weighing approximately 30–35 g, in which the substances were administered daily for 14 days orally with a gastric tube at approximately the same time of the day. The compounds were solubilized with Tween 80 (0.1%) in distilled water and administered orally in a volume of 0.1 mL per 10.0 g. Animals were observed daily for behavioral changes and signs of toxicity. All results were compared with the positive control isoniazid (INH).
# (§3) Serum biochemical parameters were assessed as follows.
# [2] = system: Glutathione peroxidase in the liver supernatant; experiment: Glutathione peroxidase activity in liver supernatant; assay type: in vivo, mice; settings: 125 and 250 mg/kg oral, 14 days; vs controls
# Method: as §3
# The Glutathione Peroxidase Cellular Activity Assay Kit (Cat. No. CGP1) and Glutathione Reductase Assay Kit (Cat. No. GRSA) were used to measure the activities of glutathione-related enzymes.
# [3] = system: MDA in the liver homogenate; experiment: Endogenous MDA (spontaneous lipid peroxidation) in liver homogenate; settings: both doses (125 and 250 mg/kg) oral, 14 days
# Method: On day 14, the animals were anesthetized with ketamine/ xylazine and decapitated. […] Livers were taken to assess oxidative stress and antioxidant status in the study groups.
# For the in vivo experiments (spontaneous lipid peroxidation) the postnuclear homogenates of the liver (mg protein/mL) in 0.15 M KCl—10 mM potassium phosphate buffer, pH 7.2, were heated for 15 min at 100 °C in the presence of 40% TCA + 5N HCl + 2% thiobarbituric acid (2:1:2 v/v) for color developing. After cooling and centrifugation, the absorbance was read at 532 nm against dd H2O as blank. The values were expressed in nmoles malondialdehyde (MDA) per mg protein, with a molar extinction coefficient of 1.56 × 10^−5 M^−1cm^−1.
# male Jcl:ICR mice [4] = experiment: Sub-acute toxicity, 14 days oral: complete blood count; assay type: in vivo
# Method: as §2, §3
# male Jcl:ICR mice [5] = experiment: Sub-acute toxicity, 14 days oral: serum biochemical parameters; assay type: in vivo; settings: serum
# Method: as §2, §3
# HEK-293T = settings: cited from earlier work
# ABTS•+ assay = settings: 15 min at 37 °C
# Method: ABTS (2,2′-azino-bis (3-ethylbenzthiazoline-6-sulphonic acid) (7.0 mM) was mixed with potassium persulfate (2.45 mM) to obtain the cationic radical (ABTS•+) The solution was diluted in methanol (2 mL ABTS•+ + 58 mL methanol). The absorption at 743 nm of the resulting working solution was 1.1 ± 0.02 AU. Then, 1.425 mL of ABTS•+ working solution was added to 75 μL of the test drugs, and the absorption at 743 nm was measured after 15 min of incubation at 37 °C against methanol. A blank containing 75 μL of water instead of the test extract also was measured against methanol.
# as §1
# female Jcl:ICR mice [6] = settings: i.p.; for Lethality: female mice
# female Jcl:ICR mice [7] = system: female Jcl:ICR mice
# [8] = system: GSH in the liver homogenate; experiment: Total glutathione in liver homogenate; assay type: in vivo, mice; settings: both doses (125 and 250 mg/kg) oral, 14 days
# Method: as §3
# According to Rahman et al. total glutathione (tGSH) concentration was determined. In the reaction between GSH and 5,5′-dithiobis-2-nitrobenzoic acid (DTNB), the rate of formation of colored substance, 5′-thio-2-nitrobenzoic acid (TNB), is proportional to the concentration of tGSH in the sample. The maximal absorption of colored TNB is at 412 nm. The concentration of tGSH was calculated using oxidized glutathione as a reference standard and was expressed as ng/mg protein.
# in vivo = settings: female, Jcl:ICR, mouse, po
# [9] = system: M. tuberculosis H37Rv reference strain; settings: cited from earlier work
structure (smiles),measurement,setting,value
"COc1cc(C=NNC(=O)c2snnc2C)ccc1O [3a, N′-[(4-hydroxy-3-methoxyphenyl)methylidene]-4-methyl-1,2,3-thiadiazole-5-carbohydrazide]","DPPH Scavenging, IC50",DPPH assay,47.5 * mg/mL
same,Body weight gain compared to the beginning of the experimental period,male Jcl:ICR mice [1],41%
same,activity of GPx in liver,[2],restored the control values of GPx; also recorded: did not statistically significantly alter
same,MDA content in the liver,[3],restoration of MDA to the control levels
same,HCT,male Jcl:ICR mice [4]; 125 mg/kg oral,37.2 ± 2.6 ^+ %
same,Hgb,male Jcl:ICR mice [4]; 125 mg/kg oral,127 ± 5.4 ^+ g/L
same,PLT,male Jcl:ICR mice [4]; 125 mg/kg oral,979 ± 238 10^9/L
same,RBC,male Jcl:ICR mice [4]; 125 mg/kg oral,6.84 ± 0.3 ^+ × 10^12/L
same,WBC,male Jcl:ICR mice [4]; 125 mg/kg oral,6.3 ± 0.36 ^+ × 10^9/L
same,HCT,male Jcl:ICR mice [4]; 250 mg/kg oral,38.2 ± 1.8 ^+ %
same,Hgb,male Jcl:ICR mice [4]; 250 mg/kg oral,129 ± 3.8 ^+ g/L
same,PLT,male Jcl:ICR mice [4]; 250 mg/kg oral,638 ± 181 10^9/L
same,RBC,male Jcl:ICR mice [4]; 250 mg/kg oral,6.97± 0.3 ^+ × 10^12/L
same,WBC,male Jcl:ICR mice [4]; 250 mg/kg oral,7.4 ± 0.44 *^+ × 10^9/L
same,CBC deviations from the reference values,male Jcl:ICR mice [4]; both doses (125 and 250 mg/kg) oral,no statistically significant deviations from the reference values
same,ALAT,male Jcl:ICR mice [5]; 125 mg/kg oral,62.2 ± 3.3 ^+ U/L
same,ALB,male Jcl:ICR mice [5]; 125 mg/kg oral,26.6 ± 2.2 ^+ g/L
same,ASAT,male Jcl:ICR mice [5]; 125 mg/kg oral,102 ± 3.6 ^+ U/L
same,CREAT,male Jcl:ICR mice [5]; 125 mg/kg oral,95.6 ± 6.6 ^+ µmol/L
same,D-Bil,male Jcl:ICR mice [5]; 125 mg/kg oral,3.4 ± 0.46 ^+ µmol/L
same,GLU,male Jcl:ICR mice [5]; 125 mg/kg oral,6.3 ± 0.36 mmol/L
same,T-Bil,male Jcl:ICR mice [5]; 125 mg/kg oral,7.6 ± 0.44 ^+ µmol/L
same,TP,male Jcl:ICR mice [5]; 125 mg/kg oral,54.3 ± 2.6 ^+ g/L
same,UA,male Jcl:ICR mice [5]; 125 mg/kg oral,163 ± 23.4 µmol/L
same,UREA,male Jcl:ICR mice [5]; 125 mg/kg oral,8.8 ± 0.28 ^+ mmol/L
same,ALAT,male Jcl:ICR mice [5]; 250 mg/kg oral,71.4 ± 3.4 *^+ U/L
same,ALB,male Jcl:ICR mice [5]; 250 mg/kg oral,27.3 ± 3.1 ^+ g/L
same,ASAT,male Jcl:ICR mice [5]; 250 mg/kg oral,113 ± 4.1 U/L
same,CREAT,male Jcl:ICR mice [5]; 250 mg/kg oral,86.4 ± 5.6 ^+ µmol/L
same,D-Bil,male Jcl:ICR mice [5]; 250 mg/kg oral,4.9 ± 0.34 ^+ µmol/L
same,GLU,male Jcl:ICR mice [5]; 250 mg/kg oral,7.1 ± 0.24 mmol/L
same,T-Bil,male Jcl:ICR mice [5]; 250 mg/kg oral,8.3 ± 0.28 ^+ µmol/L
same,TP,male Jcl:ICR mice [5]; 250 mg/kg oral,58.6 ± 3.6 ^+ g/L
same,UA,male Jcl:ICR mice [5]; 250 mg/kg oral,194 ± 17.7 µmol/L
same,UREA,male Jcl:ICR mice [5]; 250 mg/kg oral,11.5 ± 0.22 ^+ mmol/L
same,IC50,HEK-293T,257 µM
same,"ABTS Scavenging, IC50",ABTS•+ assay,89.47 * mg/mL
same,Lethality,female Jcl:ICR mice [6]; 500 mg/kg b.w.,0/3
same,Lethality,female Jcl:ICR mice [6]; 1000 mg/kg b.w.,0/3
same,Symptoms before Death Occur,female Jcl:ICR mice [6]; 1500 mg/kg b.w.,"Delayed reflexes, somnolence, lethal outcome"
same,Time of Occurrence of Fatal Outcome,female Jcl:ICR mice [6]; 1500 mg/kg b.w.,After 30 h
same,Symptoms before Death Occur,female Jcl:ICR mice [6]; 2000 mg/kg b.w.,"Impaired coordination, rapid breathing, lethal outcome"
same,Time of Occurrence of Fatal Outcome,female Jcl:ICR mice [6]; 2000 mg/kg b.w.,After 24 h
same,Symptoms before Death Occur,female Jcl:ICR mice [6]; 3000 mg/kg b.w.,"Respiratory failure with long pauses, ataxia, piloerection, seizures, lethal outcome"
same,Time of Occurrence of Fatal Outcome,female Jcl:ICR mice [6]; 3000 mg/kg b.w.,After 20 h
same,resorption index (IR) = LD50 i.p./LD50 p.os. × 100,female Jcl:ICR mice [7]; mice,≈ 49%; also recorded: ≈ 98%
same,Mortality,"female Jcl:ICR mice [7]; oral administration, highest dose of 3000 mg/kg",No mortality
same,level of GSH in liver homogenate,[8],did not significantly increase the level of GSH
same,LD50 at 14 days,in vivo,> 2500 mg/kg
same,MIC,[9]; ref [23],0.0730 µM
"COc1ccc2[nH]cc(C=NNC(=O)c3ccco3)c2c1 [3b, N′-[(5-methoxy-1H-indol-3-yl)methylidene]furan-2-carbohydrazide]","DPPH Scavenging, IC50",DPPH assay,18.69 * mg/mL
same,Body weight gain compared to the beginning of the experimental period,male Jcl:ICR mice [1],44%
same,activity of GPx in liver,[2],restored the control values of GPx; also recorded: did not statistically significantly alter
same,HCT,male Jcl:ICR mice [4]; 125 mg/kg oral,39.6 ± 0.8 ^+ %
same,Hgb,male Jcl:ICR mice [4]; 125 mg/kg oral,132.2 ± 4.2 ^+ g/L
same,PLT,male Jcl:ICR mice [4]; 125 mg/kg oral,729 ± 203 10^9/L
same,RBC,male Jcl:ICR mice [4]; 125 mg/kg oral,7.21 ± 0.16 ^+ × 10^12/L
same,WBC,male Jcl:ICR mice [4]; 125 mg/kg oral,8.2 ± 0.28 *^+ × 10^9/L
same,HCT,male Jcl:ICR mice [4]; 250 mg/kg oral,40.1 ± 1.2 ^+ %
same,Hgb,male Jcl:ICR mice [4]; 250 mg/kg oral,130.2 ± 3.7 ^+ g/L
same,PLT,male Jcl:ICR mice [4]; 250 mg/kg oral,864 ± 212 10^9/L
same,RBC,male Jcl:ICR mice [4]; 250 mg/kg oral,7.62 ± 0.24 ^+ × 10^12/L
same,WBC,male Jcl:ICR mice [4]; 250 mg/kg oral,7.7 ± 0.33 *^+ × 10^9/L
same,ALAT,male Jcl:ICR mice [5]; 125 mg/kg oral,77.2 ± 2.8 *^+ U/L
same,ALB,male Jcl:ICR mice [5]; 125 mg/kg oral,28.5 ± 3.3 ^+ g/L
same,ASAT,male Jcl:ICR mice [5]; 125 mg/kg oral,112.1 ± 4.4 U/L
same,CREAT,male Jcl:ICR mice [5]; 125 mg/kg oral,88.2 ± 3.1 ^+ µmol/L
same,D-Bil,male Jcl:ICR mice [5]; 125 mg/kg oral,5.1 ± 0.23 ^+ µmol/L
same,GLU,male Jcl:ICR mice [5]; 125 mg/kg oral,6.8 ± 0.22 mmol/L
same,T-Bil,male Jcl:ICR mice [5]; 125 mg/kg oral,7.8 ± 0.23 ^+ µmol/L
same,TP,male Jcl:ICR mice [5]; 125 mg/kg oral,56.6 ± 4.2 ^+ g/L
same,UA,male Jcl:ICR mice [5]; 125 mg/kg oral,199 ± 14.6 µmol/L
same,UREA,male Jcl:ICR mice [5]; 125 mg/kg oral,8.7 ± 0.26 ^+ mmol/L
same,ALAT,male Jcl:ICR mice [5]; 250 mg/kg oral,71.2 ± 1.9 *^+ U/L
same,ALB,male Jcl:ICR mice [5]; 250 mg/kg oral,28.2 ± 2.8 g/L
same,ASAT,male Jcl:ICR mice [5]; 250 mg/kg oral,110 ± 3.1 U/L
same,CREAT,male Jcl:ICR mice [5]; 250 mg/kg oral,92.2 ± 4.4 ^+ µmol/L
same,D-Bil,male Jcl:ICR mice [5]; 250 mg/kg oral,3.8 ± 0.42 ^+ µmol/L
same,GLU,male Jcl:ICR mice [5]; 250 mg/kg oral,7.0 ± 0.16 mmol/L
same,T-Bil,male Jcl:ICR mice [5]; 250 mg/kg oral,8.1 ± 0.32 ^+ µmol/L
same,TP,male Jcl:ICR mice [5]; 250 mg/kg oral,52.2 ± 5.1 ^+ g/L
same,UA,male Jcl:ICR mice [5]; 250 mg/kg oral,201.3 ± 12 µmol/L
same,UREA,male Jcl:ICR mice [5]; 250 mg/kg oral,8.4 ± 0.23 ^+ mmol/L
same,IC50,HEK-293T,280 µM
same,"ABTS Scavenging, IC50",ABTS•+ assay,40.35 * mg/mL
same,Lethality,female Jcl:ICR mice [6]; 500 mg/kg b.w.,0/3
same,Lethality,female Jcl:ICR mice [6]; 1000 mg/kg b.w.,0/3
same,Lethality,female Jcl:ICR mice [6]; 1500 mg/kg b.w.,0/3
same,Lethality,female Jcl:ICR mice [6]; 2000 mg/kg b.w.,0/3
same,Symptoms before Death Occur,female Jcl:ICR mice [6]; 3000 mg/kg b.w.,"Impaired coordination, rapid breathing, clonic seizures, death"
same,Time of Occurrence of Fatal Outcome,female Jcl:ICR mice [6]; 3000 mg/kg b.w.,After 3 h
same,level of GSH in liver homogenate,[8],did not significantly increase the level of GSH
same,MIC,[9]; ref [22],0.4412 µM
